Test [1] has as its system Phakopsora pachyrhizi. The test can be described thus: Curative treatment of glyphosate resistant soybean plants three days after inoculation with soybean rust. It is filed as in vivo. To be noted: treated 3 days after inoculation, assessed four weeks after inoculation. From the text:
(§1) In the Colby method, also referred to as the Limpels method, the action to be expected (E) for a given active ingredient combination obeys the so-called Colby formula. According to Colby, the expected (additive) action of active ingredients I+II using p+q ppm of active ingredient is: [formula] where ppm equals the milligrams of active ingredient (=a.i.) per liter of spray mixture; X equals the % action by component (a) using p ppm of active ingredient; Y equals the % action by component (b) using q ppm of active ingredient. If the action actually observed (O) is greater than the expected action (E), then the action of the combination is superadditive, i.e. there is a synergistic effect. For a more detailed description of the Colby formula, see Colby, S. R. “Calculating synergistic and antagonistic responses of herbicide combination,” Weeds, Vol. 15, pages 20-22; (1967); see also Limpel et al., Proc. NEWCC 16: 48-53 (1962), both of which are herein incorporated by reference in their entirety.
Curative treatment. […] Four weeks after inoculation, disease incidence and severity is determined on the first trifoliate. […]

Test [2] concerns Phakopsora pachyrhizi. The test is described as follows: Protective treatment of glyphosate resistant soybean plants three days prior to inoculation with soybean rust. Type of test: in vivo. The note with it: treated 3 days prior to inoculation, assessed four weeks after inoculation.
From the text: as §1
Protective Treatment. […] Four weeks after inoculation, disease incidence and severity is determined on the first trifoliate. […]

With `OC(Cn1cncn1)(c1ccc(F)cc1)c1ccccc1F` (stereo not shown) [Flutriafol, flutriafol], the “Observed control (O) %” value with Phakopsora pachyrhizi [1] (30 g AI/hectare) was 39%; in the test with Phakopsora pachyrhizi [2] (30 g AI/hectare), 11%.
Take `O=C(O)CNCP(=O)(O)O` [Glyphosate (acid), N-(phosphonomethyl)glycine]: the “Observed control (O) %” value was found to be 27% in the test with Phakopsora pachyrhizi [1] (100 g AI/hectare) and 82% in the test with Phakopsora pachyrhizi [2] (100 g AI/hectare).

(Values after patent publication US20070010401A1, “Synergistic combination of a glyphosate herbicide and a triazole fungicide” (Cheminova A/S, priority 2005, published 2007).)
